Reference: patent EP0535269A1, “Pharmaceutical compositions containing thiazolidinedione derivatives” (TANABE SEIYAKU CO., LTD., priority 1991, dated 1993)

Test: Bioavailability of a solution in a water-soluble polymer: plasma levels after oral administration
Assay type: in vivo
Settings: dogs, control formulation: untreated original drug (20 µm) with equal amount of corn starch in gelatin capsule, 100 mg/Dog, HPLC (Fig. 4)
Method: 5-[(2,4-dioxothiazolidin-5-yl)methyl]-2-[(2-naphthyl)methyl]benzoxazole (3 g) was dissolved in polyethyleneglycol (average molecule weight: approximately 380-420, trade name: Macrogol-400, Sanyo Chemical Industries Ltd.) (100 ml) to provide the preparation of the present invention. Mixture of an equal amount of untreated original drug (particle size: 20 µm) and corn starch was encapsulated in a gelatin capsule to give a formulation used as a control.
Four dogs (10 - 15 kg) were used in this experiment. The preparation of the invention was administered to dogs orally at the dose of 10 mg/Dog. In the separate experiment, the control formulation was administered at 100 mg/Dog. The blood was taken from the dogs and the concentration of the active compound (I) in the plasma sample was assayed in the same manner as described in the above. The time-course of the plasma levels of the drug was plotted.
In the figure, closed circles represent the average plasma levels of the compound (I) following the administration of the solution of the invention, and semi-closed circles represent those following the administration of untreated original drug.

plasma levels of the compound (I): extremely low
Compound: O=C1NC(=O)C(Cc2ccc3oc(Cc4ccc5ccccc5c4)nc3c2)S1 (stereo not shown) [raw material, 5-[(2,4-dioxothiazolidin-5-yl)methyl]-2-[(2-naphthyl)methyl]benzoxazole]
